# pEC50: −log10 of the molar value. Counter-ions that a name gives are not always drawn.
# Target: S1P1 receptor (Homo sapiens, UniProt P21453)
# Test: 35S-GTPγS binding, membranes from CHO cells expressing S1P1
# Assay type: biochemical
# Details: CHO cell membranes expressing S1P1
# Method: Receptor binding assay: Membranes were prepared from CHO cells expressing S1P1 or S1P3 for use in ligand and 35S-GTPTS binding studies. Cells were suspended in 50 mM TRIS, pH 7.4, 2 mM EDTA, 250 mM Sucrose (buffer A) and 1× Complete protease inhibitor cocktail (Roche), and disrupted at 4° C. by nitrogen decompression using a cell disruption bomb (Parr Instrument). Following centrifugation at 1000 RPM for 10 min at 4° C., the supernatant was suspended in buffer A and centrifuged again at 19000 RPM for 60 min at 4° C. The pellet was then suspended in 10 mM HEPES, pH 7.4, 1 mM EDTA, 250 mM Sucrose (Buffer B), and 1× Complete EDTA-free protease inhibitor cocktail and homogenized using a potter. Membranes were flash frozen in liquid nitrogen and stored at −80° C. [33P]sphingosine 1-phosphate (3000 Ci/mmol; American Radiolabeled Chemicals, Inc.) was added to test compounds in DMSO. Membranes and WGA SPA beads (GE Healthcare) were added to give a final volume of 100 μl in 96-well plates with assay concentrations of […] [33P]sphingosine 1-phosphate (respectively for S1P1 or S1P3), 50 mM HEPES, pH 7.5, 5 mM MgCl2, 100 mM NaCl, 0.4% fatty acid-free BSA, 1-5 μg/well of proteins and 100 μg/well of WGA SPA beads. Binding was performed for 60 min at room temperature on a shaker and bound radioactivity was measured on a PerkinElmer 1450 MicroBeta counter. Specific binding was calculated by subtracting remaining radioactivity in the presence of 1000-fold excess of unlabeled S1P. Binding data were analyzed using the GraphPad Prism program.
# Measurements of ^35S-GTPγS Binding: Membranes (1 to 10 μg protein) prepared as described above, were incubated in 96-well Scintiplates (PerkinElmer) with test compounds diluted in DMSO, in 180 μl of 20 mM HEPES, pH 7.4, 10 mM MgCl2, 2 μg/well Saponin, 0.2% fatty acid free BSA (Assay buffer), 140 mM NaCl and 1.7 μM GDP. The assay was initiated with the addition of 20 μl of 1.5 nM [35S]-GTPγS (1100 Ci/mmol; GE Healthcare) in assay buffer. After 60 min incubation at 30° C. on a shaker, plates were centrifuged for 10 min at 2000 RPM. Supernatant was discarded and membrane bound radioactivity was measured on a PerkinElmer 1450 MicroBeta counter. Triplicate samples were averaged and expressed as response relative to S1P activation in absence of compound (n=2).
# Chain of S1P1 receptor (P21453 whole entry): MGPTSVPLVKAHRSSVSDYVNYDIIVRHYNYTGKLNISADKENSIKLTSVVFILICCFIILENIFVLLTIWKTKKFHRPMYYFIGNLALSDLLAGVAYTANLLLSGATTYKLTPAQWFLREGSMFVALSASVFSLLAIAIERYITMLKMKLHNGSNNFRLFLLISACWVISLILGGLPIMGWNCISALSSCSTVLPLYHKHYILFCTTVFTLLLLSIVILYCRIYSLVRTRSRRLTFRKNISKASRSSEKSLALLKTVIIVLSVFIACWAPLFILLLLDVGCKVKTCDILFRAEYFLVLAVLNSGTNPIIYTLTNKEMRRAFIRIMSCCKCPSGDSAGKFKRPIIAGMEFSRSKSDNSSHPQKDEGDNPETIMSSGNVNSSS
row,pEC50,SMILES
1,6.64,"NCc1cccc(-c2noc(-c3nnn(-c4ccccc4F)c3-c3ccncc3)n2)c1 [Example 125, 1-(3-{5-[1-(2-fluorophenyl)-5-pyridin-4-yl-1H-1,2,3-triazol-4-yl]-1,2,4-oxadiazol-3-yl}phenyl)methanamine hydrochloride]"
2,6.01,"Fc1ccccc1-n1nnc(-c2nc(-c3ccncc3)no2)c1C1CCCC1 [Example 72, 4-{5-[5-cyclopentyl-1-(2-fluorophenyl)-1H-1,2,3-triazol-4-yl]-1,2,4-oxadiazol-3-yl}pyridine]"
3,7.68,"Fc1ccccc1-n1nnc(-c2nc(-c3ccc(CN4CCC4)cc3)no2)c1-c1ccncc1 [Example 138, 4-[4-{3-[4-(azetidin-1-ylmethyl)phenyl]-1,2,4-oxadiazol-5-yl}-1-(2-fluorophenyl)-1H-1,2,3-triazol-5-yl]pyridine]"
4,6.12,"Fc1ccccc1-n1nnc(-c2nc(-c3cccc(Cn4cncn4)c3)no2)c1-c1ccccn1 [Example 86, 2-(1-(2-fluorophenyl)-4-{3-[3-(1H-1,2,4-triazol-1-ylmethyl)phenyl]-1,2,4-oxadiazol-5-yl}-1H-1,2,3-triazol-5-yl)pyridine]"
5,7.05,"CC(=O)N1CCc2cc(-c3noc(-c4nnn(-c5ccccc5F)c4-c4ccncc4)n3)ccc21 [Example 153, 1-acetyl-5-{5-[1-(2-fluorophenyl)-5-pyridin-4-yl-1H-1,2,3-triazol-4-yl]-1,2,4-oxadiazol-3-yl}indoline]"
6,6.68,"O=C(O)C1(NCc2ccc(-c3noc(-c4nnn(-c5ccccc5F)c4-c4ccncc4)n3)cc2)CC1 [Example 162, 1-(4-(5-(1-(2-fluorophenyl)-5-(pyridin-4-yl)-1H-1,2,3-triazol-4-yl)-1,2,4-oxadiazol-3-yl)benzylamino)cyclopropanecarboxylic acid]"
7,6.28,"OCC1CCCN(Cc2ccc(-c3noc(-c4nnn(-c5ccccc5F)c4-c4ccncc4)n3)cc2)C1 (centres unmarked) [Example 140, [1-(4-{5-[1-(2-fluorophenyl)-5-pyridin-4-yl-1H-1,2,3-triazol-4-yl]-1,2,4-oxadiazol-3-yl}benzyl)piperidin-3-yl]methanol]"
8,7.25,"COc1ccc(F)cc1-c1noc(-c2nnn(-c3ccccc3F)c2-c2ccncc2)n1 [Example 122, 4-[4-[3-(5-fluoro-2-methoxyphenyl)-1,2,4-oxadiazol-5-yl]-1-(2-fluorophenyl)-1H-1,2,3-triazol-5-yl]pyridine]"
9,6.63,"COCc1c(-c2nc(-c3ccc(CN)cc3)no2)nnn1-c1ccccc1F [Example 81, 1-(4-{5-[1-(2-fluorophenyl)-5-(methoxymethyl)-1H-1,2,3-triazol-4-yl]-1,2,4-oxadiazol-3-yl}phenyl)methanamine]"
10,7.96,"CN(C)Cc1ccc(-c2noc(-c3nnn(-c4ccccc4F)c3-c3ccncc3)n2)cc1 [Example 131, 1-(4-{5-[1-(2-fluorophenyl)-5-pyridin-4-yl-1H-1,2,3-triazol-4-yl]-1,2,4-oxadiazol-3-yl}phenyl)-N,N-dimethylmethanamine]"
11,6.86,"Fc1ccc(-c2noc(-c3nnn(-c4ccccc4F)c3-c3ccncc3)n2)cc1 [Example 96, 4-{1-(2-fluorophenyl)-4-[3-(4-fluorophenyl)-1,2,4-oxadiazol-5-yl]-1H-1,2,3-triazol-5-yl}pyridine]"
12,5.73,"Fc1ccccc1-n1nnc(-c2nc(-c3ccncc3)no2)c1C1CCCO1 (centres unmarked) [Example 56, 4-{5-[1-(2-fluorophenyl)-5-(tetrahydrofuran-2-yl)-1H-1,2,3-triazol-4-yl]-1,2,4-oxadiazol-3-yl}pyridine]"
13,6.29,"Fc1ccccc1-n1nnc(-c2nc(-c3cccc(CN4CCC4)c3)no2)c1-c1ccncc1 [Example 148, 4-[4-{3-[3-(azetidin-1-ylmethyl)phenyl]-1,2,4-oxadiazol-5-yl}-1-(2-fluorophenyl)-1H-1,2,3-triazol-5-yl]pyridine formate]"
14,6.06,"COc1ccccc1-c1noc(-c2nnn(-c3ccccc3F)c2-c2ccccn2)n1 [Example 67, 2-{1-(2-fluorophenyl)-4-[3-(2-methoxyphenyl)-1,2,4-oxadiazol-5-yl]-1H-1,2,3-triazol-5-yl}pyridine]"
15,5.66,"Fc1ccccc1-n1nnc(-c2nc(-c3ccccn3)no2)c1-c1ccncc1 [Example 45, 2-{5-[1-(2-fluorophenyl)-5-pyridin-4-yl-1H-1,2,3-triazol-4-yl]-1,2,4-oxadiazol-3-yl}pyridine]"
16,6.64,"Fc1ccccc1-n1nnc(-c2nc(-c3cccnc3)no2)c1C1CCCC1 [Example 79, 3-{5-[5-cyclopentyl-1-(2-fluorophenyl)-1H-1,2,3-triazol-4-yl]-1,2,4-oxadiazol-3-yl}pyridine]"
17,6.97,"CN(CCO)Cc1ccc(-c2noc(-c3nnn(-c4ccccc4F)c3-c3ccncc3)n2)cc1 [Example 144, 2-[(4-{5-[1-(2-fluorophenyl)-5-pyridin-4-yl-1H-1,2,3-triazol-4-yl]-1,2,4-oxadiazol-3-yl}benzyl)(methyl)amino]ethanol]"
18,6.15,"Cc1cc(CCC(=O)O)ccc1-c1noc(-c2nnn(-c3ccccc3F)c2-c2ccccc2)n1 [Example 30, 3-(4-{5-[1-(2-Fluorophenyl)-5-phenyl-1H-1,2,3-triazole-4-yl]-1,2,4-oxadiazole-3-yl}-3-methylphenyl)propanoic acid]"
19,6.40,"Fc1ccccc1-c1noc(-c2nnn(-c3ccccc3F)c2C2CCCC2)n1 [Example 78, 5-[5-cyclopentyl-1-(2-fluorophenyl)-1H-1,2,3-triazol-4-yl]-3-(2-fluorophenyl)-1,2,4-oxadiazole]"
20,8.40,"Fc1ccccc1-n1nnc(-c2nc(-c3ccc(Cn4ccnc4)cc3)no2)c1-c1ccncc1 [Example 170, 4-(1-(2-fluorophenyl)-4-{3-[4-(1H-imidazol-1-ylmethyl)phenyl]-1,2,4-oxadiazol-5-yl}-1H-1,2,3-triazol-5-yl)pyridine]"
21,5.74,"O=C(O)c1ccc(-c2noc(-c3nnn(-c4ccccc4F)c3-c3ccccc3)n2)cc1 [Example 24, 4-{5-[1-(2-Fluorophenyl)-5-phenyl-1H-1,2,3-triazole-4-yl]-1,2,4-oxadiazole-3-yl}benzoic acid]"
22,6.69,"COCc1c(-c2nc(-c3cccc4[nH]ccc34)no2)nnn1-c1ccccc1F [Example 90, 4-{5-[1-(2-fluorophenyl)-5-(methoxymethyl)-1H-1,2,3-triazol-4-yl]-1,2,4-oxadiazol-3-yl}-1H-indole]"
23,7.31,"Cc1ccc(-c2noc(-c3nnn(-c4ccccc4F)c3-c3ccncc3)n2)cc1 [Example 107, 4-{1-(2-fluorophenyl)-4-[3-(4-methylphenyl)-1,2,4-oxadiazol-5-yl]-1H-1,2,3-triazol-5-yl}pyridine]"
24,7.27,"OCc1cccc(-c2noc(-c3nnn(-c4ccccc4F)c3-c3ccncc3)n2)c1 [Example 111, (3-{5-[1-(2-fluorophenyl)-5-pyridin-4-yl-1H-1,2,3-triazol-4-yl]-1,2,4-oxadiazol-3-yl}phenyl)methanol]"
25,7.59,"Fc1ccccc1-n1nnc(-c2nc(-c3ccc4c(c3)CNCC4)no2)c1-c1ccncc1 [Example 105, 7-{5-[1-(2-fluorophenyl)-5-pyridin-4-yl-1H-1,2,3-triazol-4-yl]-1,2,4-oxadiazol-3-yl}-1,2,3,4-tetrahydroisoquinoline]"
26,7.59,"Fc1ccccc1-n1nnc(-c2nc(-c3ccncc3)no2)c1-c1ccccn1 [Example 66, 2-[1-(2-fluorophenyl)-4-(3-pyridin-4-yl-1,2,4-oxadiazol-5-yl)-1H-1,2,3-triazol-5-yl]pyridine]"

# From patent US8202856B2 (Merck Serono SA, priority 2007, dated 2012)
